The target of assay [1] is T1, B-Raf kinase (SEQ ID NO: 1) (Homo sapiens, UniProt P15056).
T1 construct: GST (N); purchased Sigma
Kind of assay: Biochemical assay for B-Raf (coupled pyruvate kinase/lactate dehydrogenase).

Assay [2] addresses T2, C-Raf kinase (SEQ ID NO: 2) (Homo sapiens, UniProt P04049, Y340D/Y341D).
T2 construct: C-Raf residues 306-end; Y340D, Y341D with N-; GST (N); purchased Sigma
Kind of assay: Biochemical assay for C-Raf (coupled pyruvate kinase/lactate dehydrogenase).

In assay [3] the test system is MiaPaca-2 cells. Kind of assay: MiaPaca-2 cell proliferation assay. The assay is classed as cell-based. The note with it: Homo sapiens, MIA PaCa-2.
The test system of assay [4] is HCT-116 cells. Kind of assay: HCT-116 cell proliferation assay. The assay is classed as cell-based. The note with it: Homo sapiens.
The test system of assay [5] is HPAF-II cells. Kind of assay: HPAF-II cell proliferation assay. Conditions: Homo sapiens. The assay is classed as cell-based.
Assay [6] concerns Pa16c cells. Kind of assay: Pa16c cell proliferation assay. The assay is classed as cell-based. Conditions: 67 to 72 h incubation, resazurin; read-out: Pa16c (inhibition of cell proliferation, IC50). Background: The colour change of resazurin is a common sign of viable cells or microbes.
The test system of assay [7] is tubulin polymerization in HCT-116 cells. In words: Cellular tubulin polymerization assay (HCT-116 cells). In kind it is cell-based. The procedure:
HCT-116 cells (catalog #CCL-247) are obtained from the American Type Culture Collect (ATCC, Manassas, VA). Briefly, cells are grown in McCoy's 5A supplemented with 10% characterized fetal bovine serum (Invitrogen, Carlsbad, CA) and 1% Penicillin/Streptomycin/L-Glutamine at 37° C., 5% CO2, and 95% humidity. Cells are expanded until reaching 70-95% confluency at which point they are sub-cultured or harvested for assay use. 450000 cells are added per well in 1500 μL complete growth medium in a tissue culture treated, 12-well plate. Plates are incubated for 18 to 24 h at 37° C., 5% CO2, and 95% humidity. At the end of the incubation, 2000 μL of base culture media is added to each well, followed by a serial dilution of compound. Plates are incubated for an additional 1 h at 37° C., 5% CO2, and 95% humidity. Lysates are generated by the addition of 100 μL Lysis and Microtubule Stabilization Buffer 1 (LMSO1, Cytoskeleton Inc, Denver, CO) supplemented with GTP (BST06, Cytoskeleton Inc), ATP (BSA04, Cytoskeleton Inc), and Protease Inhibitor Cocktail Stock (PIC02, Cytoskeleton Inc). Cells are scraped off wells using a rubber cell scraper and collected in a clean 96-well plate. Lysates are centrifuged at 1000× g, 37° C. for 10 min and supernatant fraction is placed into an additional 96-well plate. The remaining pellet fraction is reconstituted in 100 μL LMS01 buffer and sonicated for 10 min. Pellet and Supernatant fractions are probed for α-tubulin via western blot analysis on the Jess System or equivalent (Bio-techne, Minneapolis, MN). Data is analyzed using Prism software (Graphpad, San Diego, CA) to calculate IC50 values.

Assay [8] addresses Porcine Brain Tubulin (Sus scrofa, UniProt P02550+P02554). In words: Biochemical tubulin polymerization assay. The note with it: maximum velocity of polymerization, FIG. 1; read-out: IC50 of inhibition of tubulin polymerization, biochemical tubulin assay.
[9] abbreviates: 1 mM ATP, read-out: BRAF (inhibition of biochemical activity, IC50).
Setting [10] is: 1 mM ATP, read-out: CRAF (inhibition of biochemical activity, IC50).
The mark [11] stands for this setting: 67-72 h incubation, resazurin, read-out: MiaPaca-2 (inhibition of cell proliferation, IC50).
[12] abbreviates: Table 3, mutant KRAS pancreatic cancer cell line, anti-proliferative, read-out: MiaPaca-2.
Setting [13] is: HCT-116, 67 to 72 h incubation, resazurin, read-out: HCT-116 (inhibition of cell proliferation, IC50).
Where [14] appears, read: Table 3, mutant KRAS colorectal cancer cell line, anti-proliferative, read-out: HCT-116.
Setting [15] is: HPAF-II, 115 to 120 h incubation, resazurin, read-out: HPAF-II (inhibition of cell proliferation, IC50).
[16] abbreviates: Table 3, mutant KRAS pancreatic cancer cell line, anti-proliferative, read-out: HPAF-II.
Setting [17] is: Table 3, HCT-116 cells, read-out: Tubulin Cellular.

SMILES strings stand for the structures. Read-outs that look alike come from different tables or passages of the source. Some results are limits rather than exact numbers.

T1 sequence (P15056 416-766): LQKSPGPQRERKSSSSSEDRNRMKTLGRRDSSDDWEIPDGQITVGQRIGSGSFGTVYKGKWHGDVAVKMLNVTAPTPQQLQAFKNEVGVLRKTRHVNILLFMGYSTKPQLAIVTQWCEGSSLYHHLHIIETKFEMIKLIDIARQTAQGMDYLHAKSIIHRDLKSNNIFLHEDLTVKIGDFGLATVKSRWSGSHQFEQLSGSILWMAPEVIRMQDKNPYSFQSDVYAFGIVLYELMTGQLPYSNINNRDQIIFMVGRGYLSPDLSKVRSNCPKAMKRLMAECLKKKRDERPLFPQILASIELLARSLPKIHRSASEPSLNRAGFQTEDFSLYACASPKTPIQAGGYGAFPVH
T2 sequence (P04049 307-648 Y340D/Y341D): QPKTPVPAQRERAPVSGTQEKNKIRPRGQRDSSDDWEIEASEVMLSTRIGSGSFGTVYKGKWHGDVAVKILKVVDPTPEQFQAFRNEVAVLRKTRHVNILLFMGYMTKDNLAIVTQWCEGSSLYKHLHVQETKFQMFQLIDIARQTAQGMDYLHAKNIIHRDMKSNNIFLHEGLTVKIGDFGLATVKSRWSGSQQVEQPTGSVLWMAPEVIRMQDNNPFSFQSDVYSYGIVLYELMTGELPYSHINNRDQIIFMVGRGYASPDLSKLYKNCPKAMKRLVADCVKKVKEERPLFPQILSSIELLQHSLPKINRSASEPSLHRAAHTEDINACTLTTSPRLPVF
Sequence of Porcine Brain Tubulin (P02554 whole entry): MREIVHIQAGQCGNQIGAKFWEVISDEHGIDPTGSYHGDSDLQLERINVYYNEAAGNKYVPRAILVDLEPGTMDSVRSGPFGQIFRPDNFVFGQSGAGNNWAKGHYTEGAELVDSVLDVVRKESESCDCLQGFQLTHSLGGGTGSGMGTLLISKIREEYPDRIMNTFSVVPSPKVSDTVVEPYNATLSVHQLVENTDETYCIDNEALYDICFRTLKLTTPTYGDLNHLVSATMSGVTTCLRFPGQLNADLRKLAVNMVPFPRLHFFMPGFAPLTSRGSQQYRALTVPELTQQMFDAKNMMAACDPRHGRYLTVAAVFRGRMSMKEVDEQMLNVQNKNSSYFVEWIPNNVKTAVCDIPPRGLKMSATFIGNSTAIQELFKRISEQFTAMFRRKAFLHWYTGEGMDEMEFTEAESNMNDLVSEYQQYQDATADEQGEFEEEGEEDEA
Sequence of Porcine Brain Tubulin (P02550 whole entry): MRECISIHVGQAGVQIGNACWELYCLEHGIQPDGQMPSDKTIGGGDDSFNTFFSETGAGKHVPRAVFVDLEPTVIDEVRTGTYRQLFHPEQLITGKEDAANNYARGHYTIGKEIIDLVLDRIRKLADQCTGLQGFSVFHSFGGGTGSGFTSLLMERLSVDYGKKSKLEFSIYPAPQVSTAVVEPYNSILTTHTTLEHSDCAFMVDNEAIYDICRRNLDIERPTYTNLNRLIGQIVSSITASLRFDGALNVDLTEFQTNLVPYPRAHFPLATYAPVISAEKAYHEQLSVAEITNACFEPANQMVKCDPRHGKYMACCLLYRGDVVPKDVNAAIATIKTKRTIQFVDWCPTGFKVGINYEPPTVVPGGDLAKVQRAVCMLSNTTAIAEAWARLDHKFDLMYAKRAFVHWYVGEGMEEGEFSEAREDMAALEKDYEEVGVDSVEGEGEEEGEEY

Consider `Cc1ccc(NC(=O)c2cc(C3CC3)cnn2)cc1-c1cc(OCCO)nc(N2CCOCC2)c1` [Example 37], for which the IC50 in assay [1] (setting [9]) was less than 100 nM; in assay [1] (Table 3, read-out: BRAF), less than 100 nM; in assay [2] (setting [10]), less than 100 nM; in assay [2] (Table 3, read-out: CRAF) it was less than 100 nM; in assay [3] (setting [11]) it was less than 100 nM; in assay [3] (setting [12]) it was less than 100 nM. The IC50 in assay [4] (setting [13]), in assay [4] (setting [14]), in assay [5] (setting [15]), in assay [5] (setting [16]), in assay [6] and in assay [7] (setting [17]) was less than 100 nM throughout.

In the case of `Cc1ccc(NC(=O)c2cc(C(F)(F)F)cnn2)cc1-c1cc(N2CCOCC2)nc(OCCO)n1` [Example 44], the IC50 is 100 to 500 nM in assay [1] (setting [9]); 100 to 500 nM in assay [1] (Table 3, read-out: BRAF); 100 to 500 nM in assay [2] (setting [10]); 100 to 500 nM in assay [2] (Table 3, read-out: CRAF); less than 100 nM in assay [3] (setting [11]); less than 100 nM in assay [3] (setting [12]). For the same compound, the IC50 in assay [4] (setting [13]) is less than 100 nM; in assay [4] (setting [14]), less than 100 nM; in assay [5] (setting [15]), less than 100 nM; in assay [5] (setting [16]), less than 100 nM; in assay [6] it was less than 100 nM; in assay [7] (setting [17]) it was 100 to 500 nM.

On to `Cc1ccc(NC(=O)c2cc(C3CCC3)cnn2)cc1-c1cc(N[C@H](C)CO)nc(N2CCOCC2)c1` [Example 48], for which the IC50 in assay [1] (setting [9]) is less than 100 nM; in assay [1] (Table 3, read-out: BRAF), less than 100 nM; in assay [2] (setting [10]), less than 100 nM; in assay [2] (Table 3, read-out: CRAF), less than 100 nM; in assay [3] (setting [11]), less than 100 nM; in assay [3] (setting [12]) it was less than 100 nM. Besides, the IC50 in assay [4] (setting [13]) was less than 100 nM; in assay [4] (setting [14]), less than 100 nM; in assay [5] (setting [15]), 500 to 1000 nM; in assay [5] (setting [16]) it was 500 to 1000 nM; in assay [6] it was less than 100 nM; in assay [7] (setting [17]), less than 100 nM.

As for `Cc1ccc(NC(=O)c2cc(C(F)(F)F)cnn2)cc1-c1nc(N[C@H](C)CO)cc(N2CCOCC2)n1` [Example 49], the IC50 was 1000 to 10000 nM in assay [1] (setting [9]); 1000 to 10000 nM in assay [1] (Table 3, read-out: BRAF); 1000 to 10000 nM in assay [2] (setting [10]); 1000 to 10000 nM in assay [2] (Table 3, read-out: CRAF); 100 to 500 nM in assay [3] (setting [11]); 100 to 500 nM in assay [3] (setting [12]). Also, the IC50 in assay [4] (setting [13]), in assay [4] (setting [14]), in assay [5] (setting [15]), in assay [5] (setting [16]), in assay [6] and in assay [7] (setting [17]) was 100 to 500 nM in each case.

Consider `Cc1ccc(NC(=O)c2cc(C(F)(F)F)cnn2)cc1-c1ccnc(N2CC3CCC(C2)O3)c1` [Example 83], for which the IC50 in assay [1] (setting [9]) is less than 100 nM; in assay [1] (Table 3, read-out: BRAF), less than 100 nM; in assay [2] (setting [10]), less than 100 nM; in assay [2] (Table 3, read-out: CRAF) it was less than 100 nM; in assay [3] (setting [11]), less than 100 nM; in assay [3] (setting [12]) it was less than 100 nM. Also, the IC50 in assay [4] (setting [13]), in assay [4] (setting [14]), in assay [5] (setting [15]), in assay [5] (setting [16]), in assay [6] and in assay [7] (setting [17]) was less than 100 nM throughout.

On to `CC(C)(C)c1[nH]cnc1/C=c1\[nH]c(=O)/c(=C/c2ccccc2)[nH]c1=O` [plinabulin, reference compound], for which the IC50 in assay [8] worked out at 2700 nM; in assay [7] (ratio of pellet to supernatant vs DMSO control, HCT-116, FIG. 2, read-out: IC50 of inhibition of tubulin polymerization, cellular tubulin assay), 5 nM.

Source of the values: US20250206729A1, “DUAL RAF AND TUBULIN INHIBITORS AND METHODS OF USE THEREOF” (Deciphera Pharmaceuticals, LLC, priority 2023, published 2025).
